Measured values: patent publication US20200239530A1, “COMPOUNDS AND METHODS OF MODULATING PROTEIN DEGRADATION” (Vividion Therapeutics, Inc., priority 2017, published 2020)

Experiments:
Assay in all cases: Cysteine liganding, probe competition
Format in all cases: binding
[1] = target: T1, E3 ubiquitin-protein ligase pellino homolog 1 (PELI1) (Homo sapiens, UniProt Q96FA3)
T1 construct: Cells were resuspended in cold PBS on ice and sonicated with a probe sonicator to achieve lysis; endogenous in cells
How it was run: (§1)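 Read-out is loss of desthiobiotin iodoacetamide labelling at cysteines, measured on streptavidin-enriched tryptic peptides. Compound preincubation ran 1 hr at 25° C in PBS lysate holding 5 mg/ml proteome before the probe was added.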

[2] = target: T2, UBR5 E3 ubiquitin-protein ligase UBR5 (Homo sapiens, UniProt O95071)
T2 construct: Cells were resuspended in cold PBS on ice and sonicated with a probe sonicator to achieve lysis; endogenous in cells
How it was run: as §1

[3] = target: T3, RPN1 Dolichyl-diphosphooligosaccharide--protein glycosy (Homo sapiens, UniProt P04843)
T3 construct: Cells were resuspended in cold PBS on ice and sonicated with a probe sonicator to achieve lysis; endogenous in cells
T3 sequence (P04843 24-607): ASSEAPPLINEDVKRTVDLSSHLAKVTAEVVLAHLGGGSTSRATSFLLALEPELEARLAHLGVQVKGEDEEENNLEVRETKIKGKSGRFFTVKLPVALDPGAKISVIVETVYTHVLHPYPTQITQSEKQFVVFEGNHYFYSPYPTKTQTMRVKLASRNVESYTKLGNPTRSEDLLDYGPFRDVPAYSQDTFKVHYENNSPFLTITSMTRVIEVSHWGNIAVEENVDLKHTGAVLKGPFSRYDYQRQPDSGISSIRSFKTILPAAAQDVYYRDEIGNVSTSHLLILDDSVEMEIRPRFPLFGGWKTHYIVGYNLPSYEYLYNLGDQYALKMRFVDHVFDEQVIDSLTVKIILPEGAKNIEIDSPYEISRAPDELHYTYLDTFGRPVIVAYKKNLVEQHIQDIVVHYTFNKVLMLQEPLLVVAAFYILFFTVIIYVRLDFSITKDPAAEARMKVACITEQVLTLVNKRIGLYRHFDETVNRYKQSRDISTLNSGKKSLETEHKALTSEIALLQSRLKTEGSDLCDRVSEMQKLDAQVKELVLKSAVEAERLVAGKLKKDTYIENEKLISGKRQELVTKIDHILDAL
How it was run: as §1

[4] = target: T4, DDX60 Probable ATP-dependent RNA helicase DDX60 (Homo sapiens, UniProt Q8IY21)
T4 construct: 200 μL of lysate containing 5 mg/ml proteome was treated with 2 μL of 100× compound stock; endogenous in cells
How it was run: as §1

[5] = target: T5, L2HGDH L-2-hydroxyglutarate dehydrogenase, mitochondrial (Homo sapiens, UniProt Q9H9P8)
T5 construct: Cells were resuspended in cold PBS on ice and sonicated with a probe sonicator to achieve lysis; endogenous in cells
T5 sequence (Q9H9P8 52-463): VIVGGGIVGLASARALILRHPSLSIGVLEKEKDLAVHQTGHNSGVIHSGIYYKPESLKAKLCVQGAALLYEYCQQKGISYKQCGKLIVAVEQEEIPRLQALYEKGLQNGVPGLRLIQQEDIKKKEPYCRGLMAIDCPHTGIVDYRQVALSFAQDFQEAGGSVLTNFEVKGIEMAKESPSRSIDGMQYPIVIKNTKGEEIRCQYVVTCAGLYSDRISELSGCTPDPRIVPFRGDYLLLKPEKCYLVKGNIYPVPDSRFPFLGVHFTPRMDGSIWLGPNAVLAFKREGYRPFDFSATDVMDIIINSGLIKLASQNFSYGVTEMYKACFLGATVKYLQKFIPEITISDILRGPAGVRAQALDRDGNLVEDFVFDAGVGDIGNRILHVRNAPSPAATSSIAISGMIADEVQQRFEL
How it was run: as §1

[6] = target: T6, PDCD11 Protein RRP5 homolog (Homo sapiens, UniProt Q14690)
T6 construct: Cells were resuspended in cold PBS on ice and sonicated with a probe sonicator to achieve lysis; endogenous in cells
How it was run: as §1

T2 sequence (O95071 whole entry): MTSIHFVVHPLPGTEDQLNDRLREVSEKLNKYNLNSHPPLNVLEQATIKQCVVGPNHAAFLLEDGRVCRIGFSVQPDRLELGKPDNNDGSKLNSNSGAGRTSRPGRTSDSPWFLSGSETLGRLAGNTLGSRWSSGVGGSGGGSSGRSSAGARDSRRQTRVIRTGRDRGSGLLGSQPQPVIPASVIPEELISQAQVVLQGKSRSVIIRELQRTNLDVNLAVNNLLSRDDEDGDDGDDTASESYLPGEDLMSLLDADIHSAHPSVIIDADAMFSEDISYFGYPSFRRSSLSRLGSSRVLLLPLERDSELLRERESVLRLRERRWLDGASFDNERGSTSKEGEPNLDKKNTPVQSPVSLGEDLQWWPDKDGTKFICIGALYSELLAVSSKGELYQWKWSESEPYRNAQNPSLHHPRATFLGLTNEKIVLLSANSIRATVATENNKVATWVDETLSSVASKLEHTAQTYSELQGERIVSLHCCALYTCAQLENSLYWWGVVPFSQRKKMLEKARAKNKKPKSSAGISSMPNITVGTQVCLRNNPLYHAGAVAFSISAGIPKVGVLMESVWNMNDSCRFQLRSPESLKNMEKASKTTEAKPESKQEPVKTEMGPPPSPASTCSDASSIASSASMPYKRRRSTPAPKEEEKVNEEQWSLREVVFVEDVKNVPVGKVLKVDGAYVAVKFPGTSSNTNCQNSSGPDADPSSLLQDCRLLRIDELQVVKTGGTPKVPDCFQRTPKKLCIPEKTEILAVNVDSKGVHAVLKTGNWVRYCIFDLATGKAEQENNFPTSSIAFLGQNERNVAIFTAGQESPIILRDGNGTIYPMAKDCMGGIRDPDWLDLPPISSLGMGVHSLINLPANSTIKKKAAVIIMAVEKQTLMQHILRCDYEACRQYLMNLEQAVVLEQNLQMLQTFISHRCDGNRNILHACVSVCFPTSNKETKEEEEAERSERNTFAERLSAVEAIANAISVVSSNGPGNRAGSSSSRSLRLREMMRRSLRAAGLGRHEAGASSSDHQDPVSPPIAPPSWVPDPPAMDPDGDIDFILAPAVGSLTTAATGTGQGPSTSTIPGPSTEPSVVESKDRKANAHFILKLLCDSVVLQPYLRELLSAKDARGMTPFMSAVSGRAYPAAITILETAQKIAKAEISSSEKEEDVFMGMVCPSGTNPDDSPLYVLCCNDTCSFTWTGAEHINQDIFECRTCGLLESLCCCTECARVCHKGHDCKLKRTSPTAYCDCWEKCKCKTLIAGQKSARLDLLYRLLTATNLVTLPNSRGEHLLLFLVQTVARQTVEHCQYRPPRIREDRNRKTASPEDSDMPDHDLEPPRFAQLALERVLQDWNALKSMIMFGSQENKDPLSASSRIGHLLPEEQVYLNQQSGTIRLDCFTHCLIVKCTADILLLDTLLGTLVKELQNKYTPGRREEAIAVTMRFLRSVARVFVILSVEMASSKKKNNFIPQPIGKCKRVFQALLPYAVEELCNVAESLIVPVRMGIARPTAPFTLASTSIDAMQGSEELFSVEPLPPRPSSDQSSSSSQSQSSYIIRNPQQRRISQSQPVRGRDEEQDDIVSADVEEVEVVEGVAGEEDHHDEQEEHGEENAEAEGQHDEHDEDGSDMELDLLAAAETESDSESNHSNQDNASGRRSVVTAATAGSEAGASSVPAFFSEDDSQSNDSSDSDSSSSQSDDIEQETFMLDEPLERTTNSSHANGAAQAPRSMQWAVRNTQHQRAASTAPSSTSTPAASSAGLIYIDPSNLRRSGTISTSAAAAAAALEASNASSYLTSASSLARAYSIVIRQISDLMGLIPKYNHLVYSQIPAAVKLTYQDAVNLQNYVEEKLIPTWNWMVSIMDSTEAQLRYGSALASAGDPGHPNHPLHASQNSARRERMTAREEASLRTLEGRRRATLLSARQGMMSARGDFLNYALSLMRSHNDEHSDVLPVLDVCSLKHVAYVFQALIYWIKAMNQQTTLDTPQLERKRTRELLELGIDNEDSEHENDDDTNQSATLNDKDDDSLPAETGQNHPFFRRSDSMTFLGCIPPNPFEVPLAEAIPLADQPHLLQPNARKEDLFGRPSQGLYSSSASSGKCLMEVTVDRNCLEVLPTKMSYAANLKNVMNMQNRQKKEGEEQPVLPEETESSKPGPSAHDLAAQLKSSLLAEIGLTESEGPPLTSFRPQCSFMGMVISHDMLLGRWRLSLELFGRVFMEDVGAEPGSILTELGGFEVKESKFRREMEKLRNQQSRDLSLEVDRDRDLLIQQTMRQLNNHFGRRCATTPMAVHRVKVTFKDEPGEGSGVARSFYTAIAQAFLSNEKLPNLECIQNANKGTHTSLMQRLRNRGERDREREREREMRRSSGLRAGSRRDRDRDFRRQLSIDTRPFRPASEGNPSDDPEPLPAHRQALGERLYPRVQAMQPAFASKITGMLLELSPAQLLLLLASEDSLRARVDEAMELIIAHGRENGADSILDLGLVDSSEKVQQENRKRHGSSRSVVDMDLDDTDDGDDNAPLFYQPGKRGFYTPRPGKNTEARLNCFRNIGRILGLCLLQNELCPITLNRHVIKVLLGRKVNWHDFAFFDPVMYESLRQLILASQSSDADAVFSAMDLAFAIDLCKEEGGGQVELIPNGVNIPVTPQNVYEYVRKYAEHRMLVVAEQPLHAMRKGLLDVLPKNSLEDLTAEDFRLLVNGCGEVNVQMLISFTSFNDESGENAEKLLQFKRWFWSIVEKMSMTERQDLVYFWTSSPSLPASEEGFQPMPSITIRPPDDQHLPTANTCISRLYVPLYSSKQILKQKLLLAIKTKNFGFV
T4 sequence (Q8IY21 whole entry): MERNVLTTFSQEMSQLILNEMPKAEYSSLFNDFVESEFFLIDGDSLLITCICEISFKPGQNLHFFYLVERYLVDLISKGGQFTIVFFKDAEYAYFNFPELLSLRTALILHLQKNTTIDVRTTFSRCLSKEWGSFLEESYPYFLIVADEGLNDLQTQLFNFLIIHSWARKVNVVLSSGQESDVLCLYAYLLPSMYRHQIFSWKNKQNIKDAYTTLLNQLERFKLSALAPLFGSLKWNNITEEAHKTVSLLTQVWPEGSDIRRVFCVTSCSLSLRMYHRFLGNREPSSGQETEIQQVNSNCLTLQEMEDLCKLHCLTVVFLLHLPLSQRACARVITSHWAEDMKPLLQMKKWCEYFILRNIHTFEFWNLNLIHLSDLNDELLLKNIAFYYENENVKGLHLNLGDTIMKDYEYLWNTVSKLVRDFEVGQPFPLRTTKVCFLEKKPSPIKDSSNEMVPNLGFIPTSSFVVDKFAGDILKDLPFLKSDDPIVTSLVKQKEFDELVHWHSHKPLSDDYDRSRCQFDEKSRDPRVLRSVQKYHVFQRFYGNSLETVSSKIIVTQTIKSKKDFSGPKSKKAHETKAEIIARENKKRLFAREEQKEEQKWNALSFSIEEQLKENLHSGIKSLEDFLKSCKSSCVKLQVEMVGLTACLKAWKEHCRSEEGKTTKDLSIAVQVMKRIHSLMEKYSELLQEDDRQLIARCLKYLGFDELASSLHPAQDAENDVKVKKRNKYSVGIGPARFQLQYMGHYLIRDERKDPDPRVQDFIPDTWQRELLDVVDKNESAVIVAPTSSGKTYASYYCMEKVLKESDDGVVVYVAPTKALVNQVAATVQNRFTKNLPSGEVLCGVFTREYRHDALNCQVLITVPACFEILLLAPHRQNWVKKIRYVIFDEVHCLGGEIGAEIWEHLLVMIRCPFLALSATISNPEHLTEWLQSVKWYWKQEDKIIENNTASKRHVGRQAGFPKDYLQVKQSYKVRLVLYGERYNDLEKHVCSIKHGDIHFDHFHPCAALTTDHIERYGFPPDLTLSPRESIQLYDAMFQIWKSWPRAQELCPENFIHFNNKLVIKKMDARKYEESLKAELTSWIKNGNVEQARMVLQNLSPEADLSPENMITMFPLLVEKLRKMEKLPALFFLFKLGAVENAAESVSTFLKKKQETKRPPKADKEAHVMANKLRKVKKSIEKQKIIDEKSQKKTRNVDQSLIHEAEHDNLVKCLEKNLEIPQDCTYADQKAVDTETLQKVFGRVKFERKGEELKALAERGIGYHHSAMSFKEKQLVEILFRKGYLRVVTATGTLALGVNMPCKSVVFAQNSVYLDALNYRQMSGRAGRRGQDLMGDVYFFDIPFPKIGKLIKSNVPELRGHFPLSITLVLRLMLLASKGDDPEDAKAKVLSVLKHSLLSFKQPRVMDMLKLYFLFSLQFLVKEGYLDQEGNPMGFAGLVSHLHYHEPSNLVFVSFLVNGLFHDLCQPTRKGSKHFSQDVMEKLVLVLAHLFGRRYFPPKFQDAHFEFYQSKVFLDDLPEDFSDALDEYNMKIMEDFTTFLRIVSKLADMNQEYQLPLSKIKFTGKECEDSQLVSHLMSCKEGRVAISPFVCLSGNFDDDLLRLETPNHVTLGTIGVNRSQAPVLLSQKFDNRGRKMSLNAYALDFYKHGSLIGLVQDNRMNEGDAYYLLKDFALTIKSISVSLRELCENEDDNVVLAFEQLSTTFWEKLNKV
T1 sequence (Q96FA3 whole entry): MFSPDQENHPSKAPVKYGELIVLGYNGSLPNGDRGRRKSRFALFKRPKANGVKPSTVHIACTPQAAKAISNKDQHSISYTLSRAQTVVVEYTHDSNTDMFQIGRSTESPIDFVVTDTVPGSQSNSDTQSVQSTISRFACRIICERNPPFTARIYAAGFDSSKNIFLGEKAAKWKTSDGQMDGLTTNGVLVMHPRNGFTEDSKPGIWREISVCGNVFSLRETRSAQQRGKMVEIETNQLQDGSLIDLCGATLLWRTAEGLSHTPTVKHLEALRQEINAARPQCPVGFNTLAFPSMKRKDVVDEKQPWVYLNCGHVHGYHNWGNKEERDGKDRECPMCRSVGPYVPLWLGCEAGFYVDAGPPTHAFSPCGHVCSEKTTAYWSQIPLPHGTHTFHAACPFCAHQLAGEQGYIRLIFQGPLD

In the case of `C=CC(=O)N(c1ccccc1)c1ccc(Br)cc1` [KB05], the inhibition at 100 µM ([1]; read-out: KB05_100 uM_percent_inhibition) was 2%.

For `COc1ccc2c(c1)CCCN2C(=O)CCl` [KB02], the Liganded ([2]; UBR5 Res# 2314, uniprot O95071) was “YES”, the Liganded ([3]; RPN1 Res# 477, uniprot P04843) was “YES” and the Liganded ([4]; DDX60 Res# 1051, uniprot Q8IY21) was “YES”. The Liganded ([5]; L2HGDH Res# 187, uniprot Q9H9P8) was “YES” and the Liganded ([6]; PDCD11 Res# 361, uniprot Q14690) was “YES”.

With `O=C(CCl)Nc1cc(C(F)(F)F)cc(C(F)(F)F)c1` [KBO3] the 100 ave ([2]; uniprot O95071) was −2.4, the “500 Max” value ([2]; uniprot O95071) was 33.0 and the 500 ave ([2]; uniprot O95071) was 26.8. The 100 Max ([2]; uniprot O95071, unit assumed) was 9.2%, the “100 Max” value ([3]; uniprot P04843) was 9.24 and the 100 ave ([3]; uniprot P04843) was −5.035. For the same molecule, the 500 ave ([3]; uniprot P04843) was 23.85, the “500 Max” value ([3]; uniprot P04843, in % (unit assumed)) was 28.71 and the “100 Max” value ([4]; uniprot Q8IY21) was 29.56. For the same molecule, the 100 ave ([4]; uniprot Q8IY21) was 19.7, the “500 Max” value ([4]; uniprot Q8IY21) was 73.07 and the 500 ave ([4]; uniprot Q8IY21) was 73.07. The “100 Max” value ([5]; uniprot Q9H9P8) was 39.03, the 100 ave ([5]; uniprot Q9H9P8) was 26.9925 and the “500 Max” value ([5]; uniprot Q9H9P8) was 70.21. For the same molecule, the 500 ave ([5]; uniprot Q9H9P8) was 67.435, the “100 Max” value ([6]; uniprot Q14690) was 19.85 and the 100 ave ([6]; uniprot Q14690) was 3.78. The 500 ave ([6]; uniprot Q14690) was 46.645, the “500 Max” value ([6]; uniprot Q14690, in % (unit assumed)) was 49.26 and the “KB03_100 uM_percent_inhibition” value ([1]; 100 uM) was 57%.
